Where a SMILES comes first, the peptide text is derived from it. Bridges are numbered along the chain shown (N, C = ends). [ ]: non-standard residue; d: D form. ξ: configuration not given here. Trp(1-CH2COOH) = N[C@@H](Cc1cn(CC(=O)O)c2ccccc12)C(=O)O; Hyp = O=C(O)[C@@H]1C[C@@H](O)CN1; Thr(3ξ) = CC(O)[C@H](N)C(=O)O; NMeNle = CCCC[C@H](NC)C(=O)O; Pip = O=C(O)[C@@H]1CCCCN1; NMeA = CN[C@@H](C)C(=O)O; Dab = NCC[C@H](N)C(=O)O; Dap = NC[C@H](N)C(=O)O
Each molecule was assayed against T1, Human PD-L1/PD-1 (Homo sapiens, UniProt Q9NZQ7) (assay: HTRF Human PD-L1/PD-1 binding assay (PD-1-Ig/PD-L1-His)). Settings: PD-L1-His 10 nM, PD-1-Ig 20 nM; class symbol; read-out: HTRF Human PD-L1/PD-1 Binding Assay IC50 Range.
T1 construct: TVMV protease cleavage site (C); made in house; host or cells: HEK293T cells
T1 sequence (Q9NZQ7 with tags, fused parts or gaps): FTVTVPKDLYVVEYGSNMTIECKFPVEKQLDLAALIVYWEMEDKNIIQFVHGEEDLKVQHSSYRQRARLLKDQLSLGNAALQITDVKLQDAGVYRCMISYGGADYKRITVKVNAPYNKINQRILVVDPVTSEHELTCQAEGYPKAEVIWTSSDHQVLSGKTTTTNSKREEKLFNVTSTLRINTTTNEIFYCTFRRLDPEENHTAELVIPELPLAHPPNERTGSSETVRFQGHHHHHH
How it was run: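 Step 1: compound with PD-L1-His (10 nM final), 15 min. Step 2: PD-1-Ig (20 nM final), 15 min. Step 3: Eu-cryptate anti-Ig (1 nM) plus APC anti-His (20 nM), 30 min equilibration. Signal taken as 665 nm/620 nm ratio.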

SMILES | IC50 [nM]
CCCC[C@H]1C(=O)N(C)CC(=O)N[C@@H](CC(=O)O)C(=O)NC(C(C)c2ccccc2)C(=O)N(C)[C@@H](Cc2ccccc2)C(=O)N[C@@H](Cc2ccc(O)cc2)C(=O)N(C)CC(=O)N[C@@H](Cc2c[nH]c3ccccc23)C(=O)N[C@@H](Cc2ccc(O)cc2)C(=O)N[C@@H](CC(C)C)C(=O)N[C@H](C(=O)NCC(N)=O)CSCC(=O)N[C@@H](Cc2ccccc2)C(=O)N(C)[C@@H](Cc2ccccc2)C(=O)N1C (single isomer, unassigned) [Example 3230-A] | 1000 to 10000
CCCC[C@H]1C(=O)N(C)[C@@H](CCCC)C(=O)N[C@@H](CN)C(=O)N[C@H](C(=O)NCC(N)=O)CSCC(=O)N[C@@H](Cc2ccc(O)cc2)C(=O)N2CCCC[C@H]2C(=O)N[C@@H](CC(N)=O)C(=O)N2CCC[C@H]2C(=O)N[C@@H](CN)C(=O)N[C@@H](CCC(=O)O)C(=O)N2C[C@H](O)C[C@H]2C(=O)N[C@@H](Cc2c[nH]c3ccccc23)C(=O)N[C@@H](CO)C(=O)N[C@@H](Cc2cn(CC(=O)O)c3ccccc23)C(=O)N1C [Example 1300] ({CH2CO}-Y[Pip]NP[Dap]E[Hyp]WS[Trp(1-CH2COOH)][NMeNle][NMeNle][Dap]CG-NH2; thioether N-14) | 1 to 9.9
CCCC[C@H]1C(=O)N(C)[C@@H](CCCC)C(=O)N[C@@H](CCC(=O)O)C(=O)N[C@H](C(=O)NCC(N)=O)CSCC(=O)N[C@@H](Cc2ccc(O)cc2)C(=O)N(C)[C@@H](C)C(=O)N[C@@H](CC(N)=O)C(=O)N2CCC[C@H]2C(=O)N[C@@H](CO)C(=O)N[C@@H](CCC(N)=O)C(=O)N2C[C@H](O)C[C@H]2C(=O)N[C@@H](Cc2c[nH]c3ccccc23)C(=O)N[C@@H](CCN)C(=O)N[C@@H](Cc2c[nH]c3ccccc23)C(=O)N1C [Example 5251] ({CH2CO}-Y[NMeA]NPSQ[Hyp]W[Dab]W[NMeNle][NMeNle]ECG-NH2; thioether N-14) | 1 to 9.9

Results, then the molecule that gave them:

IC50 [nM] | SMILES
1 to 9.9 | CCCC[C@H]1C(=O)N(C)[C@@H](CCCC)C(=O)N[C@@H](CC(C)C)C(=O)N[C@H](C(=O)NCC(N)=O)CSCC(=O)N[C@@H](Cc2ccc(O)cc2)C(=O)N(C)[C@@H](C)C(=O)N[C@@H](CC(N)=O)C(=O)N2CCC[C@H]2C(=O)N[C@@H](CC(N)=O)C(=O)N[C@@H](CCC(N)=O)C(=O)N2C[C@H](O)C[C@H]2C(=O)N[C@@H](Cc2c[nH]c3ccccc23)C(=O)N[C@@H](CCN)C(=O)N[C@@H](Cc2cn(CC(=O)O)c3ccccc23)C(=O)N1C [Example 6118] ({CH2CO}-Y[NMeA]NPNQ[Hyp]W[Dab][Trp(1-CH2COOH)][NMeNle][NMeNle]LCG-NH2; thioether N-14)
10 to 99.9 | CCCC[C@H]1C(=O)N(C)[C@@H](CCCC)C(=O)N[C@@H](CCC(=O)O)C(=O)N[C@H](C(=O)NCC(N)=O)CSCC(=O)N[C@@H](Cc2ccc(OC)cc2)C(=O)N(C)[C@@H](C)C(=O)N[C@@H](CC(=O)O)C(=O)N2CCC[C@H]2C(=O)N[C@@H](CN)C(=O)N[C@@H](CCCCN)C(=O)N2C[C@H](O)C[C@H]2C(=O)N[C@@H](Cc2c[nH]c3ccccc23)C(=O)N[C@@H](CC(=O)O)C(=O)N[C@@H](Cc2c[nH]c3ccccc23)C(=O)N1C [Example 7130] ({CH2CO}-Y(Me)[NMeA]DP[Dap]K[Hyp]WDW[NMeNle][NMeNle]ECG-NH2; thioether N-14)
1 to 9.9 | CCCC[C@H]1C(=O)N(C)[C@@H](CCCC)C(=O)N[C@@H](CCCNC(=N)N)C(=O)N[C@H](C(=O)NCC(N)=O)CSCC(=O)N[C@@H](Cc2ccc(O)cc2)C(=O)N(C)[C@@H](C)C(=O)N[C@@H](CC(N)=O)C(=O)N2CCC[C@H]2C(=O)N[C@@H](Cc2cnc[nH]2)C(=O)N[C@@H](CC(C)C)C(=O)N2C[C@H](O)C[C@H]2C(=O)N[C@@H](Cc2c[nH]c3ccccc23)C(=O)N[C@@H](C(C)O)C(=O)N[C@@H](Cc2c[nH]c3ccccc23)C(=O)N1C (stereo partly drawn) [Example 7075] ({CH2CO}-Y[NMeA]NPHL[Hyp]W[Thr(3ξ)]W[NMeNle][NMeNle]RCG-NH2; thioether N-14)

From patent US10538555B2, “Macrocyclic inhibitors of the PD-1/PD-L1 and CD80(B7-1)/PD-L1 protein/protein interactions” (BRISTOL-MYERS SQUIBB COMPANY, priority 2014, dated 2020)
